The values below come from patent US20200323780A1, “BILAYER COMBINATION TABLET FOR ORAL ADMINISTRATION CONTAINING TRAMADOL AND CELECOXIB” (KIMS HEALTHCARE CO., LTD., priority 2017, published 2020).

Values after ≈ are worked out from the molar mass of the structure shown. Where two headings read alike, the source gives them in different places.

For data set [1] the following is noted: cited from earlier work.
For data set [2] the following is noted: cited from earlier work. The source holds these as a separate data set.
Data set [3] concerns conditioned place preference. Put plainly: Psychological dependence on tramadol by change in conditioned place preference (CPP). The format is in vivo, Sprague-Dawley rats. The following applies: rats; for Change (min) in the time stayed in non-preferred compartment / Change (min) in the time stayed in preferred compartment: post- vs pre-conditioning, 15 minutes. On the procedure: 3. Test for Measuring Psychological Dependence on Tramadol by Assessment of Dependence Potential
In order to measure psychological dependence which is one of the side effects of tramadol, a change in conditioned place preference (CPP) was measured. Conditioned place preference boxes are divided into three boxes, that is, a white box, a black box and a gray box, as shown in FIG. 8. The gray box is a meddle portion in which an animal can choose between the white box and the black box, and the gray box is […]. The black box has a bottom composed of stainless steel rods having a diameter of 4.8 mm and a spacing of 16 mm, and the white box has a bottom composed of stainless steel meshes having a size of 1.25×1.25 cm. The gray box is 12 cm in width, 22 cm in length, and 21 cm in height, and the white box and the black box are 28 cm in width, 21 cm in length, and 21 cm in height.
A series of test procedures are as follows. 5-Week-old male Sprague-Dawley rats (SD rats) were purchased and acclimated for one week. Then, on days 1, 2 and 3 of the test (preconditioning step), in a state in which each rat was not treated with a drug or normal saline for injection, each rat was placed in the gray compartment, and then the door was opened and the time that each rat stayed in each compartment was measured for 15 minutes. Then, based on the mean of the measurement results, the compartment preferred by the rats in the preconditioning step (that is, the compartment in which the rats stayed longer, among the white compartment and the black compartment) was determined.
The next step is a conditioning step corresponding to day 4 to day 11. On days 4, 6, 8 and 10, the corresponding dose of each of the Test Example and the Comparative Examples was administered by intraperitoneal injection to each rat, and after 30 minutes, the rats were adapted to the non-preferred compartment for 30 minutes so as to allow the rats to remember the non-preferred compartment in association with tramadol. On the remaining days 5, 7, 9 and 11, normal saline for injection was administered by intraperitoneal injection to the rats, and after 30 minutes, the rats were adapted to the preferred compartment for 30 minutes so as to allow the rats to remember the preferred compartment in association with the saline solution. On day 12 corresponding to a final step (post-conditioning step), in a state in which neither the drug nor normal saline for injection was administered to the rats, the rats were placed in the gray compartment, and then the door was opened and the time that the rats stayed in each compartment was measured for 15 minutes (see Table 7).
The difference between the time that the rats stayed in the tramadol-associated place (non-preferred compartment) in the post-conditioning step and the time that the rats stayed in the non-preferred compartment in the pre-conditioning step indicates the tramadol-induced change in conditioned place preference, that is, psychological dependence on the drug.
Next, based on the test results, the standardized J-T statistic and the significance level (p-value) were confirmed using a Jonckheere-terpstra test which is a non-parametric statistical method.

Where [4] appears, read: tramadol 2.6 mg/kg intraperitoneal on days 4, 6, 8, 10.
Where [5] appears, read: tramadol 3.9 mg/kg intraperitoneal on days 4, 6, 8, 10.
Where [6] appears, read: tramadol 10.3 mg/kg intraperitoneal on days 4, 6, 8, 10.

Take `Cc1ccc(-c2cc(C(F)(F)F)nn2-c2ccc(S(N)(=O)=O)cc2)cc1` [Celecoxib]: in data set [1], the in vivo half-life result was “about 11 hours”. In addition, in data set [2] (20° C.), the solubility in water was 3.3 µg/mL (≈ 8.65 µM).
As for `COc1cccc(C2(O)CCCCC2CN(C)C)c1` (centres unmarked) [tramadol], the blood half-life result in data set [1] (in vivo) is “about 6 hours”. Further, the “Change (min) in the time stayed in non-preferred compartment” value is listed as 1.3 min in data set [3] (setting [4]), 2.8 min in data set [3] (setting [5]) and 3.3 min in data set [3] (setting [6]). For the same compound, the results for the “Change (min) in the time stayed in preferred compartment” value in data set [3] (setting [4]), in data set [3] (setting [5]) and in data set [3] (setting [6]) were -0.17 min, 2.20 min and 3.03 min, respectively. For the same compound, the “psychological dependence on tramadol (FIG. 9)” value in data set [3] (tramadol 37.5 mg (Comparative Example 5) or 100 mg (Comparative Example 6) compared to Test Example 2 (tramadol 25 mg) and Comparative Example 4 (tramadol 0 mg)) is given as “greatly increased”. Besides, the “solubility in water” value in data set [2] is “very soluble in water”.
